In patent US9738902B2, “Modified PYR/PYL receptors activated by ligands” (priority 2013, dated 2017):

How the values were obtained:
[1] = target: T1, PYR1 K59R V81I F108A S122G A160V (Arabidopsis thaliana, UniProt O49686, A160V/F108A/K59R/S122G/V81I); assay: Y2H Combinatorial Mutagenesis II (HAB1, X-gal); assay type: cell-based
T1 construct: expressed in transfected cells; host or cells: S. cerevisiae Y190 pACT-HAB1
From the text: (§1) Both of the above optimization experiments led to the identification of the following mutations that, when introduced one at a time, enhance the mandipropamid sensitivity of PYR1^K59R,F108A,S122G: Y58H, V81C, V81I, V81T, V83L, L87A, F159L, F159M, F159V, A160V and V164I. Given that these each enhance sensitivity on their own, we tested if combinations of these mutations might generate more sensitive receptors. Mutagenic primers for each of the mutations were designed and used simultaneously with the QuickChange Lightning Multi Site-Directed Mutagenesis kit (Agilent, USA) with PYR1^K59R,F108A,S122G template DNA. Individual clones were sequenced to identify bona fide combination mutants, which were transformed into the Y190 pACT-HAB1 yeast strain and assayed for mandipropamid sensitivity. These efforts led to the identification of several improved receptors (“Combinatorial Mutagenesis Screen II”, Table 1), including PYR1^Y58H,K59R,V81I,F108A,S122G,F159L, a hextuple mutant that we have named PYR1^MANDI. Yeast reporter strains expressing this mutant are responsive to mandipropamid concentrations as low as 2 nM (Table 1). Thus, the 5-step mutagenesis protocol we followed led to the construction of a mandipropamid responsive receptor with nanomolar sensitivity.

[2] = target: T2, PYR1 Y58H K59R V81I F108A S122G (Arabidopsis thaliana, UniProt O49686, F108A/K59R/S122G/V81I/Y58H); assay: Y2H Combinatorial Mutagenesis II (HAB1, X-gal); assay type: cell-based
T2 construct: expressed in transfected cells; host or cells: S. cerevisiae Y190 pACT-HAB1
From the text: as §1

[3] = target: T3, PYR1 Y58H K59R V81I F108A S122G (PYR1^MANDI) (Arabidopsis thaliana, UniProt O49686, F108A/F159L/K59R/S122G/V81I/Y58H); assay: Y2H Combinatorial Mutagenesis II (HAB1, X-gal); assay type: cell-based; conditions: Y58H K59R V81I F108A S122G F150L
T3 construct: expressed in transfected cells; host or cells: S. cerevisiae Y190 pACT-HAB1
From the text: as §1

[4] = target: T4, PYR1 Y58H K59R V81I F108A S122G F150L (PYR1^MANDI) (Arabidopsis thaliana, UniProt O49686, F108A/F159L/K59R/S122G/V81I/Y58H); assay: Y2H Combinatorial Mutagenesis II (HAB1, X-gal); assay type: cell-based; conditions: PYR1^MANDI, yeast two hybrid
T4 construct: expressed in transfected cells; host or cells: S. cerevisiae Y190 pACT-HAB1
From the text: as §1

[5] = target: T5, GST-ABI2 in the presence of PYR1^K59R,F108A,S122G (Arabidopsis thaliana, UniProt O49686, F108A/K59R/S122G); assay: PP2C activity assay (pNPP); assay type: biochemical; conditions: PYR1^K59R,F108A,S122G 1200 nM, PP2C 600 nM
T5 construct: 6x-His; made in house; host or cells: E. coli BL21[DE3]pLysS (receptor)
From the text: (§2) One possibility in any functional screen conducted in a heterologous organism such as S. cerevisiae is that mutants identified may only work in the context of the heterologous expression system. We therefore examined whether recombinant PYR1^K59R,F108A,S122G and PYR1^MANDI proteins inhibit PP2C activity in vitro, as is well documented for wild type PYR1 in response to ABA (Park et al., 2009). Both receptors were cloned into pET28 to generate 6×-His (SEQ ID NO:109) tagged receptors. These were expressed in BL21[DE3]pLysS E. coli host cells at 18° C. overnight. 6×-His-fusion proteins were purified from sonicated lysates using Ni-NTA agarose (Qiagen, USA), according to the manufacturer's instructions. For PP2C assays, recombinant GST-HAB1 and GST-ABI2 were expressed and purified as described previously (Park et al., 2009) and PP2C activity assayed conducted using the colorimetric phosphatase substrate para-nitrophenyl phosphate (pNPP) as previously described (Park et al., 2009). PP2C assays were conducted using 600 nM of PP2C and 1200 nM recombinant receptors. […] We note that these mutant receptors cannot respond to ABA due to the K59R mutation they contain, which abolishes ABA responsiveness.

[6] = target: T6, GST-ABI2 in the presence of PYR1^MANDI (Arabidopsis thaliana, UniProt O49686, F108A/F159L/K59R/S122G/V81I/Y58H); assay: PP2C activity assay (pNPP); assay type: biochemical; conditions: PYR1^MANDI 1200 nM, PP2C 600 nM
T6 construct: 6×-His (N); made in house; host or cells: BL21[DE3]pLysS E. coli (receptor)
From the text: as §2

[7] = target: T7, GST-HAB1 in the presence of PYR1^K59R,F108A,S122G (Arabidopsis thaliana, UniProt O49686, F108A/K59R/S122G); assay: PP2C activity assay (pNPP); assay type: biochemical; conditions: PYR1^K59R,F108A,S122G 1200 nM, PP2C 600 nM
T7 construct: 6x-His; made in house; host or cells: E. coli BL21[DE3]pLysS (receptor)
From the text: as §2

[8] = target: T8, GST-HAB1 in the presence of PYR1^MANDI (Arabidopsis thaliana, UniProt O49686, F108A/F159L/K59R/S122G/V81I/Y58H); assay: PP2C activity assay (pNPP); assay type: biochemical; conditions: PYR1^MANDI 1200 nM, PP2C 600 nM
T8 construct: 6×-His (N); made in house; host or cells: BL21[DE3]pLysS E. coli (receptor)
From the text: as §2

[9] = test system: MDP1 and MDP2 genotypes (35S::PYR1^MANDI); assay: survival after water deprivation and re-watering; assay type: in vivo, Arabidopsis; conditions: 1 μM mandipropamid, 11 days water deprivation
Protocol: Examples 6 and 8 disclosed that mandipropamid treatments of PYR1^MANDI transgenic plants are sufficient to close guard cells (as indicated by thermal imaging) and confer drought tolerance. To investigate these responses further we performed three additional experiments using wild type Columbia, PYR1-OX and the MDP1 and MDP2 genotypes. Each experiment was conducted independently of the other at different times over the course of 8 months. Each experiment characterized 3 pots of each genotype (each pot contained 4 plants). After 2 weeks (exp. 1) or 3 weeks (Experiments 2 and 3) watering was ceased and the plants were treated with a mock or 1 μM mandipropamid solution made in water containing 0.02% Silwet L-77. These treatments were repeated every 4 (Experiment 1) or 3 days (Experiments 2 and 3). […] After 10 to 11 days of water deprivation the plants were re-watered to assess survival rates after extreme water deprivation. […] Inset in each image are the survival counts from Experiment 1 (upper numbers) and Experiments 2 and 3 (lower numbers). The survival rates have been separated because the experimental protocol for Experiment 1 differed from Experiments 2 and 3.
Plants were grown for ˜4 weeks until initial floral meristems became obvious, after which watering was ceased and the plants were treated with either a mock or 1 μM mandipropamid solution. […]

T3 sequence (O49686 whole entry Y58H/K59R/V81I/F108A/S122G/F159L): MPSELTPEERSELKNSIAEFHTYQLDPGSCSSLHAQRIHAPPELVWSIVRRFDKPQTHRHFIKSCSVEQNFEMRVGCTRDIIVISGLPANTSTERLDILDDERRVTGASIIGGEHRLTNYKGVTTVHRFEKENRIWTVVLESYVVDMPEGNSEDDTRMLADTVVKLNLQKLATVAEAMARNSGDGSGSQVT
T3 sequence (Q9CAJ0 23-511 partner): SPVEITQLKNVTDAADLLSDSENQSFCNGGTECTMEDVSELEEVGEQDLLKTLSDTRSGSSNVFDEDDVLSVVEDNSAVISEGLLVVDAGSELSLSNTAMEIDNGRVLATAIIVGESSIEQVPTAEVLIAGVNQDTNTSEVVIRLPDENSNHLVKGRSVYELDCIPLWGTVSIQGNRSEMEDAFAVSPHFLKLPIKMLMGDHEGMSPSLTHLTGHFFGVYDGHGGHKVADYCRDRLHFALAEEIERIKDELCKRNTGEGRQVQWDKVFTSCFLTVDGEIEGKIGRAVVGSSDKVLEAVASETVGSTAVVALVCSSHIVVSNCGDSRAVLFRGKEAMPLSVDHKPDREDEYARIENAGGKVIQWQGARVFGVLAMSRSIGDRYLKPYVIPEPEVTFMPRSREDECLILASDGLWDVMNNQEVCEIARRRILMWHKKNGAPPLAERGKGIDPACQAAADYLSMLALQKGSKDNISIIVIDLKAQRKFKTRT
T4 sequence (O49686 whole entry Y58H/K59R/V81I/F108A/S122G/F159L): as the sequence (O49686 whole entry Y58H/K59R/V81I/F108A/S122G/F159L) above
T4 sequence (Q9CAJ0 23-511 partner): as the sequence (Q9CAJ0 23-511 partner) above
T8 sequence (O49686 whole entry Y58H/K59R/V81I/F108A/S122G/F159L): as the sequence (O49686 whole entry Y58H/K59R/V81I/F108A/S122G/F159L) above
T8 sequence (Q9CAJ0 23-511 partner): as the sequence (Q9CAJ0 23-511 partner) above
T6 sequence (O49686 whole entry Y58H/K59R/V81I/F108A/S122G/F159L): as the sequence (O49686 whole entry Y58H/K59R/V81I/F108A/S122G/F159L) above
T6 sequence (O04719 whole entry partner): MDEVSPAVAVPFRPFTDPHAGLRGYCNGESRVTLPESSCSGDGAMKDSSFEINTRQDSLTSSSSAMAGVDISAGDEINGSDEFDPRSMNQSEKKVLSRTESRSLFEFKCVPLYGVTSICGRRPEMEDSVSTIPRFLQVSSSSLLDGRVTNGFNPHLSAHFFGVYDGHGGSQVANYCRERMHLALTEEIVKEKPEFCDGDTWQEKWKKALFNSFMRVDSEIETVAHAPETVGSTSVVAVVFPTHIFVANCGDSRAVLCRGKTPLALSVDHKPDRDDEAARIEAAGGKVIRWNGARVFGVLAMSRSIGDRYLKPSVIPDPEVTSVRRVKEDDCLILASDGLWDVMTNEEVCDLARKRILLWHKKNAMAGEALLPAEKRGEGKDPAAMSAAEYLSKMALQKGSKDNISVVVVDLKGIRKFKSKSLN
T2 sequence (O49686 whole entry Y58H/K59R/V81I/F108A/S122G): as the sequence (O49686 whole entry Y58H/K59R/V81I/F108A/S122G/F159L) above, with L159F counted along it
T2 sequence (Q9CAJ0 23-511 partner): as the sequence (Q9CAJ0 23-511 partner) above
T1 sequence (O49686 whole entry K59R/V81I/F108A/S122G/A160V): as the sequence (O49686 whole entry Y58H/K59R/V81I/F108A/S122G/F159L) above, with H58Y, L159F, A160V counted along it
T1 sequence (Q9CAJ0 23-511 partner): as the sequence (Q9CAJ0 23-511 partner) above
T7 sequence (O49686 whole entry K59R/F108A/S122G): as the sequence (O49686 whole entry Y58H/K59R/V81I/F108A/S122G/F159L) above, with H58Y, I81V, L159F counted along it
T7 sequence (Q9CAJ0 23-511 partner): as the sequence (Q9CAJ0 23-511 partner) above
T5 sequence (O49686 whole entry K59R/F108A/S122G): as the sequence (O49686 whole entry Y58H/K59R/V81I/F108A/S122G/F159L) above, with H58Y, I81V, L159F counted along it
T5 sequence (O04719 whole entry partner): as the sequence (O04719 whole entry partner) above

C#CCOc1ccc(CCNC(=O)C(OCC#C)c2ccc(Cl)cc2)cc1OC (stereo not drawn) [Mandipropamid, mandipropamid]
Threshold [1]: 0.05 µM
Threshold [2]: 0.05 µM
Threshold [3]: 0.002 µM
lowest mandipropamid concentration with detectable PYR1^MANDI-HAB1 interaction in yeast reporter strain [4]: 2 nM
inhibition of ABI2 PP2C activity [5]: saturable inhibition
inhibition of ABI2 PP2C activity [6]: saturable inhibition
inhibition of HAB1 PP2C activity [7]: saturable inhibition
inhibition of HAB1 PP2C activity [8]: saturable inhibition
survival rates after water deprivation and re-watering, relative to wild type and PYR1-OX controls [9]: greatly improved
